Laboratory results published in USRE29337E, “Dicarboxylic acid soaps” (priority 1976, dated 1977).

Tests used:
[1] = Solubilities of various fatty acid soaps in water (Example 1); format: physicochemical
Protocol: Likewise, just as the type of fatty acid used influences soap properties, so does the choice of neutralizing agent. Therefore, various available inorganic alkalis were also compared.
The procedure for making the fatty acid soaps was to dissolve the inorganic alkali in the prescribed amount of water, heating to 150° F. The fatty acid was slowly added to the alkali solution and agitated for a few minutes.

[2] = format: physicochemical
Source text: is often desirable when making liquid soaps, as well as toilet soaps, having tailored properties, to blend together various fatty acids to achieve desirable characteristics and lessen the undesirable ones.

[3] = Viscosity vs percentage real soap, Brookfield viscometer (Example 4, FIGURE); format: physicochemical
Source text: A property of the soaps which points up this solubility advantage of C21 dicarboxylic acid soap and which is also important for C21 dicarboxylic acid utility is the viscosity of the soap. […] The solubility of the various soaps may be illustrated by the viscosity of the soaps which is shown in the accompanying figure. […] The coconut fatty acid potassium soap is somewhat poorer than the C21 dicarboxylic acid soap since its viscosity goes above twenty centipoises at 30% real soap.
This example illustrates a comparison of viscosity changes with potassium solids. Liquid soaps of fatty acids must be fairly fluid for ease in dispensing and using them. Therefore, a measure of the change in viscosity of a soap solution as percentage soap present increases is an easy method for determining the concentration of soap that can be used. The curves in the accompanying FIGURE show this relationship. A Brookfield viscometer was used to determine these curves at 25° C. […] The fact that 50% oleic acid/50% coconut soap is required to obtain a viscosity of 20 cps. at 30% real soap; whereas only 25% C21 dicarboxylic acid soap/75% tall oil fatty acid is needed to reach the same viscosity level is typical of the significance of the C21 dicarboxylic acid soaps.

[4] = Fluidity and gelling of soaps (general description); format: physicochemical; conditions: potassium soap
Source text: The C21 dicarboxylic acid soaps are made by neutralizing the C21 dicarboxylic acid. The neutralizing agent used is based on the solubility characteristics desired in the soap and economic considerations. The neutralizing agents contemplated include those of the following cations, sodium, potassium, lithium and ammonium. These cations may be obtained from such inorganic alkalis as caustic soda, caustic potash, and soda ash. Another cation which may be used is the ammonium cation. Organic amines may also be used, specifically amines such as triethylamine, monoethylamine, diethylamine, and alkanolamines, such as ethanolamine, triethanolamine and diethanolamine. The soaps made from the above listed neutralizing agents are all liquid at temperatures as low as 30° F.
For example, the potassium soap of oleic acid is a viscous fluid at about 18% solids and gels at 19%-20% solids. However, the potassium soap of oleic acid blended with 40% C21 dicarboxylic acid potassium soap is very fluid at 30 to 40% solids. This general characteristic of increased solubility is advantageous to all soap users for economy in shipping and handling. It also allows for cuts in production costs in applications where water is removed from the final product, since less water is added with the soap when a C21 dicarboxylic acid soap is used. […]

[5] = potassium soaps; cited from earlier work
[6] = Amine soaps: dilution with water and gelling (Example 5); format: physicochemical; conditions: triethylamine soap; diluted slowly with water, C21 soap down to 25% solids
Protocol: The C21 dicarboxylic acid-amine soaps were also prepared using diethanolamine and monoethanol amine.

[7] = Liquid soap formulations (Example 8); format: physicochemical; conditions: for pH of formulation: liquid soap formulations, excess base kept very low; for state of liquid soap: sodium hydroxide substituted for potassium hydroxide; for compatibility of pine oil with soap formulation: pine oil at 3% addition
Protocol: The formulation used was 12% coconut fatty acids, 3% soya or tall oil fatty acid, 4.4% KOH, 1% KCL, 80% water and a perfume as desired. In all of the soaps pine oil was added as the perfume at 3% addition.
The pine oil was compatible with the C21 dicarboxylic acid soap formulation. Of course, with C21 dicarboxylic acid soap much more concentrated, fluid soaps were prepared.
To further test the advantages of C21 dicarboxylic acid soap in liquid soaps, sodium hydroxide was substituted for the potassium hydroxide in each of the formulations mentioned above. […] In all of these formulations the excess base was kept at a very low level so that the pH's were about 9 for the C21 dicarboxylic acid and coconut fatty acid systems and about 11 for the oleic acid systems.

[8] = one-half of the carboxyl groups as carboxylate anions
Source text: Since each molecule of C21 dicarboxylic acid has two carboxyl groups of varying acidity it is possible to convert the most acidic of these to the soap and the molecule becomes water-soluble leaving a free acid group on each molecule. […] A soap solution of C21 dicarboxylic acid can be prepared at any pH above 6.5, so in the case of amine soaps one can prepare the soap in such a way as to have free acid groups rather than excess amine, so there is no amine odor.
Of course, these soaps all have a pH of about 6.7 and have one free carboxylic acid group in solution.
Since the C21 dicarboxylic acid has two acid groups of different strengths, it is very easy to prepare the mono or half soap of the diacid.

[9] = Shampoo formulations, soap content (Example 9); format: physicochemical; conditions: 99% solids
Source text: A product similar to the liquid soaps in composition is shampoo. Basically, shampoos are simply perfumed soap solutions which need to lather easily and which have a fairly high soap content. Consequently, most shampoos consist from 50% to 100% of the solids as coconut fatty acid soaps. With such a formulation a viscous potassium soap of about 35% real soap (solids) can be prepared. If the triethanolamine soap is used, a 40% real soap may be formulated. As is obvious from the earlier discussion, C21 dicarboxylic acid soap would allow for greater flexibility in the amount of soap present in the shampoo and also allow for the utility of a lower priced cation, sodium.
An area closely related to the liquid soaps is shampoos. The formulations are similar but, since profuse sudsing is desired in shampoos and since low viscosity is not critical, the real soap content is more than twice as high. To get 35% soap in a formulation, coconut fatty acids or a blend of 50% coconut-50% oleic must be used. A 40% soap shampoo can be prepared using triethanolamine rather than potassium hydroxide to form the soap. […] C21 dicarboxylic acid has a major economic advantage in this application since sodium hydroxide could be used instead of potassium hydroxide.

[10] = cation K, 40 percent solids in water

In the case of `CCCCCCCCC(=O)O` [Nonanoic acid (G9), Nonanoic acid], the Characteristics ([1]; cation K, 35 percent solids in water) is reported as “Viscous solution” and the Characteristics [1, 10] is reported as “Gel”.
With `CCCCCCCC/C=C\CCCCCCCC(=O)O` [Vegetable derived oleic acid (C18), oleic acid] the “Characteristics at 25° C.” value [2] was “Gel”.
With `CCCCCCCC/C=C\CCCCCCCC(=O)O` [potassium soap of oleic acid] the “percentage real soap at which viscosity exceeds twenty centipoises” value ([3]; potassium soap solution, 25° C.) was 16 % real soap and the “percent solids at which soap is a viscous fluid” value [4] was “about 18 % solids”.
In the case of `CCCCCCCC/C=C\CCCCCCCC(=O)O` [oleic acid], the “highest solids soaps that are still fluid at room temperature” value [5] is given as 20%, the “gelling on dilution with water” value [6] is given as “a gel formed immediately upon the addition of water” and the pH of formulation [7] is given as “about 11”. For the same compound, the “fluidity of liquid soap” value ([7]; potassium hydroxide formulation, in place of coconut fatty acids) was “very viscous soap of questionable utility” and the “state of liquid soap” value [7] was “gels”.
For “5 carboxy-4-hexyl-2-cyclohexene-1-octanoic acid and 6 carboxy-4-hexyl-2 cyclohexene-1-octanoic acid [C21 dicarboxylic acid]”, the “viscosity of blends with oleic acid soap and coconut soap” value [3] was “low viscosity blends”, the “water-solubility of partly neutralized acid” value [8] was “water-soluble” and the “water solubility compared with soaps of conventional fatty acids” value [1] was “water soluble at higher solids content”. The Characteristics ([1]; cation K, 20 percent solids in water) was “Solution”, the Characteristics ([1]; cation K, 80 percent solids in water) was “Viscous solution” and the Characteristics ([1]; cation Li, 10 percent solids in water) was “Solution”. The Characteristics ([1]; cation Na, 20 percent solids in water) was “Solution”, the Characteristics ([1]; cation Na, 65 percent solids in water) was “Viscous solution” and the gelling [9] was “does not gel”. The pH of formulation [7] was “about 9”, the “compatibility of pine oil with soap formulation” value ([7]; listed as C21 dicarboxylic acid soap) was “compatible” and the “compatibility of pine oil with soap formulation” value ([7]; listed as C21 dicarboxylic acid soaps) was “very compatible”. The precipitation ([7]; sodium hydroxide formulation, storage) was “no signs of precipitating after three months” and the “state of liquid soap” value [7] was “very fluid”.
For `CCCCCCCCCCCC(=O)O` [Lauric acid (C12), Lauric acid], the “highest solids soaps that are still fluid at room temperature” value [5] is given as 35%, the Characteristics ([1]; cation K, 33 percent solids in water) is given as “Viscous solution” and the Characteristics ([1]; cation K, 36 percent solids in water) is given as “Gel”.
For `CCCCCCCC(=O)O` [Octanoic acid (C8), Octanoic acid], the “highest solids soaps that are still fluid at room temperature” value [5] is given as 45%, the Characteristics [1, 10] is given as “Viscous solution” and the Characteristics ([1]; cation K, 45 percent solids in water) is given as “Gel”.
In the case of `CCCCCCCCCC(=O)O` [Decanoic acid (C10), Decanoic acid], the “highest solids soaps that are still fluid at room temperature” value [5] is given as 40%.
